Test results published in patent US11207289B2, “Use of benzofuran lignans to induce IL-25 expression and suppress mammary tumor metastasis” (ACADEMIA SINICA, priority 2016, dated 2021).

Columns and labels:
Assay type in all cases: cell-based
[1] = MTT assay, cytotoxic effect on M10; settings: human, M10 cells (normal human mammary epithelial cell line)
Description: (§1) M10, WI38, SKBR3, and MDA-MB-231 cells (1×10^5 cells/ml) dispensed in 96-well plates were incubated with vehicle or test compounds (Q2-3) for 24 h or 72 h in corresponding basal medium in a 5% CO2 incubator. To evaluate the effect of secreted IL-25 from Q2-3-treated fibroblasts on growth activity of mammary tumor cells, 4T1 and MDA-MB-231 cells (1×10^4 cells/ml) dispensed in 96-well plates were incubated with control medium or different fibroblast conditioned media (200 μl/ml) which was changed daily for 5 days. All treatments were performed in triplicate cell cultures. The growth activity of cells was assayed using a 3-(4, 5-dimethythiazol-2-yl)-2, 5-diphenyl tetrazolium bromide (MTT; Sigma-Aldrich) colorimetric method. The absorbance at 570 nm (A570) was measured using a multiwall scanning spectrophotometer.
(§2) FIG. 1 is a schematic depiction of cytotoxic effects of dihydrobenzofuran lignan (Q2-3) on breast tumor cells. (a): Scheme for synthesis of Q2-3 (methyl (E)-3-[2-(3,4-dihydroxyphenyl)-7-hydroxy-3-methoxycarbonyl-2,3-dihydro-1-benzofuran-5yl]prop-2-enoate) from two caffeic acid methyl ester molecules. […] The beginning cytotoxic dosage of Q2-3 was detected at 0.3 μM, with >50% kill rate on SKBR3 and MDA-MB-231 cells. […]

[2] = MTT assay, cytotoxic effect on WI38; settings: human, WI38 cells (human fibroblast cell line)
Description: as §1, §2

mouse IL-25 = experiment: 3-D culture, western blot of IL-25 in 3T3 fibroblasts and 3T3-CM
Description: To mimic the tumor microenvironment, a 3-dimensional (3-D) co-culture system was employed for the maintenance of mammary tumor cells and tumor-associated fibroblasts in adjacent collagen gels as reported in Rajan et al., Nature protocols, 1, 2753-2758 (2006). More specifically, rat tail collagen solution dissolved in acetic acid was neutralized by 1 N NaOH and then mixed with 10×PBS at 4° C. in a ratio of 9:1. To construct solid tumor-like cell mass, mouse (4T1 or TS/A cells) or human (MCF-7 or MDA-MB-231 cells) mammary tumor cells in each correspondent culture medium (1×10^6 cells/ml) were mixed with 4 mg/ml collagen solution in a ratio of 1:1. Four drops of collagen-tumor cell mixture ([…]) were immediately and separately loaded on culture substratum in each well of a 6-well plate. The plates were then turned-over and kept in CO2 incubator at 37° C. for collagen gelation. […]
To pull down and deplete IL-25 protein molecules in 3T3 or MDA-MB-231 cell conditioned media, the Dynabeads antibody coupling kit (Life Technology; 14311D) was used according to the manufacturer's recommendations, yielding 10 mg/ml anti-IL25 antibody (ProteinTech, Chicago, Ill.)-coupled beads. […] The antibody-pulled down proteins from 3T3-CM, NHDF-CM or WI38-CM, were detected for the content of secreted IL-25 protein in each conditioned medium using western blot analysis. […]

**Q.** What does the source list for `COC(=O)/C=C/c1cc(O)c2c(c1)C(C(=O)OC)C(c1ccc(O)c(O)c1)O2` (stereo not shown) [Q2-3, methyl(E)-3-[2-(3,4-dihydroxyphenyl)-7-hydroxy-3-methoxycarbonyl-2,3-dihydro-1-benzofuran-5yl]-prop-2-enoate]?
**A.** viability at 2 µM [1]: ≥ 80%; viability at 2 µM [2]: ≥ 80%; expression of IL-25 in mouse (3T3) fibroblasts (mouse IL-25; 3-D culture, treatment 24 h or 72 h): increased; level of secreted IL-25 in fibroblast-conditioned medium vs untreated (mouse IL-25; 3T3-CM): significantly higher
